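Five concentrations, 48 hours, 96-well plates. TGI denotes the concentration required for complete inhibition of growth.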
Tests used:
Experiment in all cases: NCI tumour cell line growth inhibition, 48 h
[1] = tested on: SNB-78 CNS
[2] = tested on: K-562 leukemia
[3] = tested on: SW-620 colon
[4] = tested on: HOP-92 NSCLC
[5] = tested on: 786-0 renal
[6] = tested on: EKVX NSCLC
[7] = tested on: COLO 205 colon
[8] = tested on: SNB-75 CNS
[9] = tested on: NCI-H226 lung
[10] = tested on: M14 melanoma
[11] = tested on: KM12 colon
[12] = tested on: DMS 273 small cell lung
[13] = tested on: TK-10 renal
[14] = tested on: SR leukemia
[15] = tested on: XF 498 CNS
[16] = tested on: UACC-62 melanoma
[17] = tested on: IGROV1 ovarian
[18] = tested on: UACC-257 melanoma
[19] = tested on: SK-MEL-28 melanoma
[20] = tested on: NCI-H23 lung
[21] = tested on: HOP-18 NSCLC
[22] = tested on: MOLT-4 leukemia
[23] = tested on: HOP-62 NSCLC
[24] = tested on: UO-31 renal
[25] = tested on: OVCAR-8 ovarian
[26] = tested on: SF-268 CNS
[27] = tested on: HT29 colon
[28] = tested on: SNB-19 CNS
[29] = tested on: KM20L2 colon
[30] = tested on: MALME-3M melanoma
[31] = tested on: A498 renal
[32] = tested on: OVCAR-4 ovarian
[33] = tested on: SK-MEL-2 melanoma
[34] = tested on: RPMI-8226 leukemia
[35] = tested on: LXFL 529 NSCLC
[36] = tested on: A549 NSCLC
[37] = tested on: NCI-H460 lung
[38] = tested on: RXF 393 renal
[39] = tested on: SK-OV-3 ovarian
[40] = tested on: SF-539 CNS
[41] = tested on: ACHN renal
[42] = tested on: DMS 114 small cell lung
[43] = tested on: HCC-2998 colon
[44] = tested on: CCRF-CEM leukemia
[45] = tested on: U251 CNS
[46] = tested on: HCT-15 colon
[47] = tested on: OVCAR-3 ovarian
[48] = tested on: RXF-631 renal
[49] = tested on: LOX IMVI melanoma
[50] = tested on: NCI-H522 lung
[51] = tested on: SF-295 CNS
[52] = tested on: SK-MEL-5 melanoma
[53] = tested on: M19-MEL melanoma
[54] = tested on: SN12C renal
[55] = tested on: DLD-1 colon
[56] = tested on: CAKI-1 renal
[57] = tested on: NCI/ADR-RES ovarian
[58] = tested on: HL-60(TB) leukemia
[59] = tested on: P388 leukemia
[60] = tested on: P388/ADR leukemia
[61] = tested on: MCF7 breast
[62] = tested on: OVCAR-5 ovarian
[63] = tested on: SN12K1 renal
[64] = tested on: HCT-116 colon

SMILES: CC(=O)OC1COC(N2C(=O)C(=O)c3cc(Br)ccc32)C(OC(C)=O)C1OC(C)=O (stereo not drawn)
- TGI [1]: > 100 µM
- TGI [2]: > 100 µM
- TGI [3]: > 100 µM
- TGI [4]: > 100 µM
- TGI [5]: > 100 µM
- TGI [6]: > 100 µM
- TGI [7]: > 100 µM
- TGI [8]: > 100 µM
- TGI [9]: > 100 µM
- TGI [10]: > 100 µM
- TGI [11]: > 100 µM
- TGI [12]: > 100 µM
- TGI [13]: > 100 µM
- TGI [14]: > 100 µM
- TGI [15]: > 100 µM
- TGI [16]: > 100 µM
- TGI [17]: > 100 µM
- TGI [18]: > 100 µM
- TGI [19]: > 100 µM
- TGI [20]: > 100 µM
- TGI [21]: > 100 µM
- TGI [22]: > 100 µM
- TGI [23]: > 100 µM
- TGI [24]: > 100 µM
- TGI [25]: > 100 µM
- TGI [26]: > 100 µM
- TGI [27]: > 100 µM
- TGI [28]: > 100 µM
- TGI [29]: > 100 µM
- TGI [30]: > 100 µM
- TGI [31]: > 100 µM
- TGI [32]: > 100 µM
- TGI [33]: > 100 µM
- TGI [34]: > 100 µM
- TGI [35]: > 100 µM
- TGI [36]: > 100 µM
- TGI [37]: > 100 µM
- TGI [38]: > 100 µM
- TGI [39]: > 100 µM
- TGI [40]: > 100 µM
- TGI [41]: > 100 µM
- TGI [42]: > 100 µM
- TGI [43]: > 100 µM
- TGI [44]: > 100 µM
- TGI [45]: > 100 µM
- TGI [46]: > 100 µM
- TGI [47]: > 100 µM
- TGI [48]: > 100 µM
- TGI [49]: > 100 µM
- TGI [50]: > 100 µM
- TGI [51]: > 100 µM
- TGI [52]: > 100 µM
- TGI [53]: > 100 µM
- TGI [54]: > 100 µM
- TGI [55]: > 100 µM
- TGI [56]: > 100 µM

SMILES: COC1(O)c2cccc(Cl)c2C(=O)N1C1(C(N)=O)CCCCC1 (stereo not drawn)
- TGI [1]: > 100 µM
- TGI [57]: > 100 µM
- TGI [2]: > 100 µM
- TGI [3]: > 100 µM
- TGI [4]: 40.7 µM
- TGI [6]: > 100 µM
- TGI [7]: > 100 µM
- TGI [8]: > 100 µM
- TGI [9]: > 100 µM
- TGI [58]: > 100 µM
- TGI [11]: > 100 µM
- TGI [12]: > 100 µM
- TGI [15]: > 100 µM
- TGI [59]: > 100 µM
- TGI [16]: > 100 µM
- TGI [17]: > 100 µM
- TGI [18]: > 100 µM
- TGI [60]: > 100 µM
- TGI [19]: > 100 µM
- TGI [20]: > 53.1 µM
- TGI [21]: > 100 µM
- TGI [22]: > 100 µM
- TGI [23]: > 100 µM
- TGI [24]: > 100 µM
- TGI [25]: > 100 µM
- TGI [26]: > 100 µM
- TGI [27]: > 58 µM
- TGI [28]: > 100 µM
- TGI [29]: > 100 µM
- TGI [30]: > 100 µM
- TGI [61]: > 100 µM
- TGI [31]: > 100 µM
- TGI [32]: > 100 µM
- TGI [33]: > 100 µM
- TGI [34]: > 100 µM
- TGI [36]: > 100 µM
- TGI [62]: > 100 µM
- TGI [63]: > 100 µM
- TGI [37]: > 100 µM
- TGI [38]: > 100 µM
- TGI [39]: > 100 µM
- TGI [40]: > 100 µM
- TGI [42]: > 100 µM
- TGI [43]: > 100 µM
- TGI [44]: > 100 µM
- TGI [45]: > 100 µM
- TGI [46]: > 100 µM
- TGI [47]: > 100 µM
- TGI [49]: > 100 µM
- TGI [64]: > 100 µM
- TGI [50]: > 100 µM
- TGI [51]: > 100 µM
- TGI [52]: > 100 µM
- TGI [53]: > 100 µM
- TGI [54]: > 100 µM
- TGI [55]: > 100 µM
- TGI [56]: > 100 µM

Reference: PubChem BioAssay (NCI)
